Measured values taken from patent US8530474B2, “Substituted 6-(1-piperazinyl)-pyridazines as 5-HT6 receptor antagonists” (Janssen Pharmaceutica NV, priority 2008, dated 2013).
Where a name gives a salt, the structure may show the parent alone.

Legend:
human H3 receptor [1] = target: T1, human H3 receptor (Homo sapiens, UniProt Q9Y5N1); assay: In vitro binding assay for human H3 receptor (125I-iodoproxyfan, SK-N-MC cell membranes); details: iodoproxifan 1 nM, Ki converted from IC50
T1 construct: expressed in transfected cells
Experimental: In vitro Binding Assay for Human H3 Receptor
Briefly, cell pellets from SK-N-MC cells expressing the human H3 receptor were homogenized in 50 mM Tris-HCl/5 mM EDTA and recentrifuged at 30000 g for 30 min. Pellets were rehomogenized in 50 mM Tris/5 mM EDTA (pH 7.4). Membranes were incubated for 1 h at 25° C. with ^125I-iodoproxyfan diluted with cold iodoproxifan in 50 mM Tris-HCl/5 mM EDTA. The final total iodoproxifan concentration in the reactions is 1 nM. The cold iodoproxifan is included at 0.975 nM and the ^125I-iodoproxyfan is included at 0.025 nM final concentration. The reactions were terminated by filtration thru GF/B plates (pretreated with 0.3% polyethylenimine) on the cell harvester. The plates were washed 5 times with buffer. Nonspecific binding was defined in the presence of 100 μM histamine Inhibitory concentration (responsible for 50% inhibition of maximal effect, IC50) values were determined by a single site curve-fitting program (GraphPad, San Diego, Calif.) and converted to Ki values based on a ^125I-iodoproxyfan dissociation constant (Kd) of 1 nM.

[2] = target: T2, human Serotonin 5-HT6 receptor (Homo sapiens, UniProt P50406); assay: In vitro binding affinity for human 5-HT6 receptor ([3H]LSD, membranes of transfected HEK cells); details: human 5-HT6, [3H]Lysergic acid diethylamide 2 nM, HEK cell membranes; read-out: pIC50 Values (5-HT6) (converted)
T2 construct: expressed in transfected cells; host or cells: HEK cells
Experimental: D. Pharmacology In vitro Binding Affinity for Human 5-HT6 Receptor
Frozen membranes of human Serotonin 5-HT6 receptor-transfected HEK cells were thawed, briefly homogenized using an Ultra-Turrax T25 homogeniser and diluted in 50 mM Tris-HCl assay buffer containing 10 mM MgCl2, 1 mM EDTA and 10 μM Pargyline (adjusted to pH 7.4 with HCl) to an appropriate protein concentration optimized for specific and non-specific binding. Radioligand [^3H]Lysergic acid diethylamide (Perkin Elmer, specific activity ˜80 Ci/mmol) was diluted in assay buffer at a concentration of 20 nM. Radioligand (20 μl), along with 40 μl of either the 10% DMSO control, Methiothepine (10^−5M final concentration for measurement of non specific binding), or compound of interest, was then incubated with 70 μl of the prepared membrane solution and 70 μl of WGA (wheat germ agglutinin) coated PVT (polyvinyltoluidene) beads (0.25 mg/well final concentration). The final concentration of radioligand per well was 2 nM. After shaking for 24 h. at RT, plates were counted in a Topcount™ scintillation counter. Percentage specific binding and competition binding curves were calculated using S-Plus software (Insightful).

human H3 receptor [3] = target: T1, human H3 receptor; details: used to convert IC50 to Ki, read-out: dissociation constant (Kd) of radioligand; cited from earlier work

T2 sequence (P50406 whole entry): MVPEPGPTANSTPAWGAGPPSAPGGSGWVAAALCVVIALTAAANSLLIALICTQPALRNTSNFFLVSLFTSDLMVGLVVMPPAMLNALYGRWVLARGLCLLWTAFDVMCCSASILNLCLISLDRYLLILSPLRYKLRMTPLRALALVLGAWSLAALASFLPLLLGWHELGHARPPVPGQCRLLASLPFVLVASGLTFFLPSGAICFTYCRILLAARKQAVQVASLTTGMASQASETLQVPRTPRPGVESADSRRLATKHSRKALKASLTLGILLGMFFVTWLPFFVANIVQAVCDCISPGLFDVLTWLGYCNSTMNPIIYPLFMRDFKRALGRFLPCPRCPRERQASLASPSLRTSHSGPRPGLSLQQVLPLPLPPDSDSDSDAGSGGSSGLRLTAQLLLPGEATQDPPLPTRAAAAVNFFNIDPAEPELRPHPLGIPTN
T1 sequence (Q9Y5N1 whole entry): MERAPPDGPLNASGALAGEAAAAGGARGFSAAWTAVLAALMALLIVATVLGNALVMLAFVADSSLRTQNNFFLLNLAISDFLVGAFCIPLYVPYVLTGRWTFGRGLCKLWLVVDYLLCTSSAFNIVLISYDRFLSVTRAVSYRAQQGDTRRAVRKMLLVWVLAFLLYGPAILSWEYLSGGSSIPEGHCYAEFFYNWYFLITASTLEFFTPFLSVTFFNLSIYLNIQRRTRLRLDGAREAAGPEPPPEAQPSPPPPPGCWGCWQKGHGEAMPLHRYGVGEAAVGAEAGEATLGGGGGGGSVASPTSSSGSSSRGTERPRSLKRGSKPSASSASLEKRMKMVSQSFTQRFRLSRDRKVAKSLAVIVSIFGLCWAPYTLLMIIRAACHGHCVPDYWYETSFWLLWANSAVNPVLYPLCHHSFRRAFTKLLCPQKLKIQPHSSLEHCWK

SMILES | melting point | Ki (human H3 receptor [1]) | IC50 [2] | Kd (human H3 receptor [3])
Fc1ccc(Nc2cc(N3CCNCC3)nnc2C(F)(F)F)cc1 (as salt: HCl) (hydrate or solvate) [Co. No. 16, N-(4-fluorophenyl)-6-(1-piperazinyl)-3-(trifluoromethyl)-4-pyridazinamine.2.5HCl .0.5H2O] | > 300 °C |  |  | 
OC(c1ccccc1)c1cc(N2CCNCC2)nnc1C(F)(F)F (stereo not drawn) (as salt: HCl) [Co. No. 5, alpha-phenyl-6-(1-piperazinyl)-3-(trifluoromethyl)-4-pyridazinemethanol] | 199.7 °C |  |  | 
FC(F)(F)c1nnc(N2CCN(Cc3ccncc3)CC2)cc1/C=C/c1ccccc1 (as salt: trifluoroacetate) [Co. No. 17, 4-[(E)-2-phenylethenyl]-6-[4-(4-pyridinylmethyl)-1-piperazinyl]-3-(trifluoromethyl)-pyridazine] | 163.9 °C |  |  | 
Fc1ccc(Oc2cc(N3CCNCC3)nnc2C(F)(F)F)cc1 [Co. No. 1, 4-(4-fluorophenoxy)-6-(1-piperazinyl)-3-(trifluoromethyl)-pyridazine] | 132.5 °C | 5000 nM | 251 nM | 
Fc1ccc(Nc2cc(N3CCNCC3)nnc2C(F)(F)F)cc1 [Co. No. 2, N-(4-fluorophenyl)-6-(1-piperazinyl)-3-(trifluoromethyl)-4-pyridazinamine] |  |  | 63.1 nM | 
FC(F)(F)c1nnc(N2CCNCC2)cc1Cc1ccccc1 [Co. No. 3, 4-(phenylmethyl)-6-(1-piperazinyl)-3-(trifluoromethyl)-pyridazine] | 133.8 °C | > 10000 nM | 126 nM | 
O=C(c1ccccc1)c1cc(N2CCNCC2)nnc1C(F)(F)F [Co. No. 4, phenyl[6-(1-piperazinyl)-3-(trifluoromethyl)-4-pyridazinyl]-methanone] | 289.5 °C | > 10000 nM | 126 nM | 
OC(c1ccccc1)c1cc(N2CCNCC2)nnc1C(F)(F)F (stereo not drawn) [Co. No. 5, alpha-phenyl-6-(1-piperazinyl)-3-(trifluoromethyl)-4-pyridazinemethanol] |  | > 10000 nM | 631 nM | 
O=S(=O)(c1ccccc1)c1cc(N2CCNCC2)nnc1C(F)(F)F [Co. No. 6, 4-(phenylsulfonyl)-6-(1-piperazinyl)-3-(trifluoromethyl)-pyridazine] | 180.3 °C | > 10000 nM | 251 nM | 
Fc1ccc(/C=C\c2cc(N3CCNCC3)nnc2C(F)(F)F)cc1 [Co. No. 7, 4-[(Z)-2-(4-fluorophenyl)ethenyl]-6-(1-piperazinyl)-3-(trifluoromethyl)-pyridazine] |  | > 10000 nM | 158 nM | 
Fc1ccc(/C=C/c2cc(N3CCNCC3)nnc2C(F)(F)F)cc1 [Co. No. 8, 4-[(E)-2-(4-fluorophenyl)ethenyl]-6-(1-piperazinyl)-3-(trifluoromethyl)-pyridazine] | 180.6 °C | > 10000 nM | 63.1 nM | 
Fc1ccc(C#Cc2cc(N3CCNCC3)nnc2C(F)(F)F)cc1 [Co. No. 9, 4-[(4-fluorophenyl)ethynyl]-6-(1-piperazinyl)-3-(trifluoromethyl)-pyridazine] | 251.6 °C | > 10000 nM | 1580 nM | 
CN1CCN(c2cc(/C=C/c3ccccc3)c(C(F)(F)F)nn2)CC1 [Co. No. 11, 6-(4-methyl-1-piperazinyl)-4-[(E)-2-phenylethenyl]-3-(trifluoromethyl)-pyridazine] | 135.8 °C | > 10000 nM | 398 nM | 
CN1CCN(c2cc(C(=O)c3ccccc3)c(C(F)(F)F)nn2)CC1 [Co. No. 13, [6-(4-methyl-1-piperazinyl)-3-(trifluoromethyl)-4-pyridazinyl]phenyl-methanone] | 136.3 °C | > 10000 nM | 158 nM | 
Fc1ccc(CNc2cc(N3CCNCC3)nnc2C(F)(F)F)cc1 [Co. No. 14, N-[(4-fluorophenyl)methyl]-6-(1-piperazinyl)-3-(trifluoromethyl)-4-pyridazinamine] |  | > 10000 nM | 631 nM | 
Fc1ccc(COc2cc(N3CCNCC3)nnc2C(F)(F)F)cc1 [Co. No. 15, 4-[(4-fluorophenyl)methoxy]-6-(1-piperazinyl)-3-(trifluoromethyl)-pyridazine] | 142.1 °C | > 10000 nM | 398 nM | 
Fc1ccc(Nc2cc(N3CCNCC3)nnc2C(F)(F)F)cc1 [Co. No. 16, N-(4-fluorophenyl)-6-(1-piperazinyl)-3-(trifluoromethyl)-4-pyridazinamine.2.5HCl .0.5H2O] |  | > 10000 nM |  | 
FC(F)(F)c1nnc(N2CCN(Cc3ccncc3)CC2)cc1/C=C/c1ccccc1 [Co. No. 17, 4-[(E)-2-phenylethenyl]-6-[4-(4-pyridinylmethyl)-1-piperazinyl]-3-(trifluoromethyl)-pyridazine] |  | > 10000 nM | 1260 nM | 
FC(F)(F)c1nnc(N2CCN(Cc3ccccn3)CC2)cc1/C=C/c1ccccc1 [Co. No. 18, 4-[(E)-2-phenylethenyl]-6-[4-(2-pyridinylmethyl)-1-piperazinyl]-3-(trifluoromethyl)-pyridazine] | 121.4 °C | > 10000 nM | 6310 nM | 
Ic1ccc(COCCCc2cnc[nH]2)cc1 [^125I-iodoproxyfan] |  |  |  | 1 nM
